Source: patent publication US20250151727A1, “(S)-ABSCISIC ACID FOR REDUCING FRUIT DROP” (Valent BioSciences LLC, priority 2023, published 2025)

Columns and labels:
'Leanri' mandarin trees = experiment: Fruit drop, 'Leanri' mandarin, Ashton, all plots with Falgro and girdling (Example 5); assay type: in vivo; conditions: for # Fruit per Tree / % Change in # Fruit per Tree: 37 ppm, 21 days after 100% petal drop; for % Change in # Fruit per Tree: vs untreated control
Protocol: Excelero™ SL was applied to mature ‘Leanri’ mandarin trees in a commercial orchard near Ashton (33°50′57″S, 20°02′15″E) in the Western Cape Province of South Africa. The experiment consisted of 5 trees per plot. S-ABA was applied at 37 ppm in the form of ProTone™ SG and Excelero™ SL and compared to an untreated control at 2.4 liters per tree. All plots received application of Falgro® at 70% and 90% petal fall and a girdling action. All treatments were applied with Villa 51® at a rate of 6 milliliters per 100 liters of water. Treatments were applied 21 days after 100% petal drop on 8 Nov. 2023. See Results in Table 5, below.

[1] = tested on: 'Midnight Valencia' sweet orange trees; experiment: Fruit drop, 'Midnight Valencia' sweet orange, Mpumalanga (Example 7); assay type: in vivo; conditions: for # Fruit per Tree / % Change in # Fruit per Tree: Excelero SL; for % Change in # Fruit per Tree: vs untreated control
Source text: Excelero™ SL was applied to mature ‘Midnight Valencia’ sweet orange trees in a commercial orchard near Mpumalanga, South Africa. The experiment consisted of a completely randomized design. S-ABA was applied at 20, 40 and 80 ppm in the form of Excelero™ SL and compared to an untreated control. All treatments were applied with Villa 51® at a rate of 6 milliliters per 100 liters of water. Treatments were applied 14, 21 and 28 days after 100% petal drop (“DAP”). See Results in Table 7, below.

Substance: (S)-abscisic acid [S-ABA]
- effect on fruit drop as compared to untreated control ('Leanri' mandarin trees; 37 ppm at 21 days after 100% petal drop): reduced fruit drop
- # Fruit per Tree ('Leanri' mandarin trees; Excelero SL): 430
- % Change in # Fruit per Tree ('Leanri' mandarin trees; Excelero SL): 28%
- # Fruit per Tree ('Leanri' mandarin trees; ProTone SG): 398
- % Change in # Fruit per Tree ('Leanri' mandarin trees; ProTone SG): 19%
- effect on fruit drop as compared to untreated control ([1]; 20, 40 and 80 ppm at each of 14, 21 and 28 days after 100% petal drop): reduced fruit drop
- # Fruit per Tree ([1]; 20 ppm @ 14 DAP): 239
- % Change in # Fruit per Tree ([1]; 20 ppm @ 14 DAP): 19%
- # Fruit per Tree ([1]; 20 ppm @ 21 DAP): 263
- % Change in # Fruit per Tree ([1]; 20 ppm @ 21 DAP): 31%
- # Fruit per Tree ([1]; 20 ppm @ 28 DAP): 245
- % Change in # Fruit per Tree ([1]; 20 ppm @ 28 DAP): 22%
- # Fruit per Tree ([1]; 40 ppm @ 14 DAP): 221
- % Change in # Fruit per Tree ([1]; 40 ppm @ 14 DAP): 10%
- # Fruit per Tree ([1]; 40 ppm @ 21 DAP): 246
- % Change in # Fruit per Tree ([1]; 40 ppm @ 21 DAP): 22%
- # Fruit per Tree ([1]; 40 ppm @ 28 DAP): 230
- % Change in # Fruit per Tree ([1]; 40 ppm @ 28 DAP): 14%
- # Fruit per Tree ([1]; 80 ppm @ 14 DAP): 255
- % Change in # Fruit per Tree ([1]; 80 ppm @ 14 DAP): 27%
- # Fruit per Tree ([1]; 80 ppm @ 21 DAP): 256
- % Change in # Fruit per Tree ([1]; 80 ppm @ 21 DAP): 27%
- # Fruit per Tree ([1]; 80 ppm @ 28 DAP): 285
- % Change in # Fruit per Tree ([1]; 80 ppm @ 28 DAP): 42%
